The target in data set [1] is PKC. In words: Kinase specificity: PKC. The format is biochemical. The note with it: tested at 50 μM; approximate IC50(app)=A×i/(1−A). As for the experimental part: (§1) IC50 values were determined with curve-fitting plots available with common softeware packages. Approximate IC50 values were calculated using formula IC50(app)=A×i/(1−A) where A=fractional activity and i=total inhibitor concentration.
(§2) Compounds 5 and 7 were tested for their specificity for p38 by assessing their ability to inhibit other kinases. These compounds were tested at 50 μM and were soluble at 250 μM in 5% DMSO/95% water.

Data set [2] deals with DNA-dep PK (PKD) (Homo sapiens, UniProt P78527). In words: Kinase specificity: DNA-dep PK. The format is biochemical. The note with it: tested at 50 μM; approximate IC50(app)=A×i/(1−A). As for the experimental part: as §1, §2
For data set [3], the target named is p38-β (Homo sapiens, UniProt Q15759). In words: p38-β inhibition. Conditions: curve fitted. The format is biochemical. As for the experimental part: as §1
p38-β, sequence (Q15759 whole entry): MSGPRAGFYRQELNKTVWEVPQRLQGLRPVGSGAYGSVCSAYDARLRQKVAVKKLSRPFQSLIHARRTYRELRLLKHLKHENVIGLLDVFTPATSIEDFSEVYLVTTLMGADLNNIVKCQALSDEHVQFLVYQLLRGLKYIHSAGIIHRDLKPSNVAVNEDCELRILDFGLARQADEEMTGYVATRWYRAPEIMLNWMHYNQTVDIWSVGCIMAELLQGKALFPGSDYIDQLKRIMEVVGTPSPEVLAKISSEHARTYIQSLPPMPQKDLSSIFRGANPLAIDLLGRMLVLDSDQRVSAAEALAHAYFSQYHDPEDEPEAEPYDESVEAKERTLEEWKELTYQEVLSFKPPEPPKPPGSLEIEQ
Data set [4] concerns the target PKA (Homo sapiens, UniProt P17612). In words: Kinase specificity: PKA. Conditions: tested at 50 μM; approximate IC50(app)=A×i/(1−A). The format is biochemical. As for the experimental part: as §1, §2
Data set [5] concerns the target T1, p38-γ (Homo sapiens, UniProt P53778).
T1 sequence (P53778 1-367): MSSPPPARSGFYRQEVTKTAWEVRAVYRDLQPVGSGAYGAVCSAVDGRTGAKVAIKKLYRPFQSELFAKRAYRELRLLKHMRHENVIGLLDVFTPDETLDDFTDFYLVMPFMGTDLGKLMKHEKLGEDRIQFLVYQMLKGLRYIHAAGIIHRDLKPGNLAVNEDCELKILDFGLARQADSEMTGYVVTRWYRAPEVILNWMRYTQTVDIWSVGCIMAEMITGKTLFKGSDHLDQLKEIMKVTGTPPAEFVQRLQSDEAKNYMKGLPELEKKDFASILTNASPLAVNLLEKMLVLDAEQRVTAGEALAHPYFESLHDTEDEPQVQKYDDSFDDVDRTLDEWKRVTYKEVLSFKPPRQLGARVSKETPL
In words: Kinase specificity: p38-γ. The format is biochemical. Conditions: tested at 50 μM; approximate IC50(app)=A×i/(1−A). As for the experimental part: as §1, §2

In data set [6] the target is JNK1 (Homo sapiens, UniProt P45983). In words: Kinase specificity: JNK1. The format is biochemical. Conditions: tested at 50 μM; approximate IC50(app)=A×i/(1−A). As for the experimental part:
as §1, §2

For data set [7], the target named is EGF-R (Homo sapiens, UniProt P00533). Briefly: Kinase specificity: EGF-R. The format is biochemical. Conditions: tested at 50 μM; approximate IC50(app)=A×i/(1−A). As for the experimental part: as §1, §2
EGF-R, sequence (P00533 25-1210, species assumed): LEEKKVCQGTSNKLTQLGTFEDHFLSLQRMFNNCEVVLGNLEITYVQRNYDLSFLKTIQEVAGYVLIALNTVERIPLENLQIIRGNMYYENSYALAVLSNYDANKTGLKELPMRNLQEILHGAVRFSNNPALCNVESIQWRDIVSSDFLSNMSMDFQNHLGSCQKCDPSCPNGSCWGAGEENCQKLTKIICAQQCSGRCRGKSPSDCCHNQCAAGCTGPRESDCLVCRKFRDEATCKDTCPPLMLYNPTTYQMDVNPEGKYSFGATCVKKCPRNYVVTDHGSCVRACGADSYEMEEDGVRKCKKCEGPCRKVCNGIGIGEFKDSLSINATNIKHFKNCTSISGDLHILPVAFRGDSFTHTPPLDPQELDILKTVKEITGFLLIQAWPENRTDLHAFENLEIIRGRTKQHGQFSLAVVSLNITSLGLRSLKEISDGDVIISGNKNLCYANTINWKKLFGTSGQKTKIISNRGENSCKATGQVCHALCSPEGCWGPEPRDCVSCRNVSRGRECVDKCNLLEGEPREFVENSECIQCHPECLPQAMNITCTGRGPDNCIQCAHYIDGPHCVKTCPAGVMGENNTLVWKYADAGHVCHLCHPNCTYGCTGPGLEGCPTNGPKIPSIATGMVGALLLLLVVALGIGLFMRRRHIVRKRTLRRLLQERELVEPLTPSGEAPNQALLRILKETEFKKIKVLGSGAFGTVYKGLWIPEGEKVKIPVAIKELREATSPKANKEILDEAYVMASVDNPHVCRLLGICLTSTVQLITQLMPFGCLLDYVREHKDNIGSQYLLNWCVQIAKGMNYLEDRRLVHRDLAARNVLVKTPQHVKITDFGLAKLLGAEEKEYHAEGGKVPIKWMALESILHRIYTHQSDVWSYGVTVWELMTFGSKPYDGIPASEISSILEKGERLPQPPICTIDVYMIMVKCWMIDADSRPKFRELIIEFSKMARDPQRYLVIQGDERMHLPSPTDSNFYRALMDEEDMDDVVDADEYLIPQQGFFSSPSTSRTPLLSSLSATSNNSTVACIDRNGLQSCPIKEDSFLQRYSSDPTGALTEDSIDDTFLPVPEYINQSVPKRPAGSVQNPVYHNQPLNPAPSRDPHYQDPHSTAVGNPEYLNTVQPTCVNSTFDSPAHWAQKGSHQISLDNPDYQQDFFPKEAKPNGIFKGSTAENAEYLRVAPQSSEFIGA
The nature of data set [8]: Solubility in 5% DMSO/95% water. The note with it: aqueous with cosolvent or surfactant or cyclodextrin, read-out: soluble at. The format is physicochemical. As for the experimental part: as §2
The target in data set [9] is cck2. Briefly: Kinase specificity: cck2. The format is biochemical. The note with it: tested at 50 μM; approximate IC50(app)=A×i/(1−A). As for the experimental part:
as §1, §2

JNK1, sequence (P45983 whole entry, species assumed): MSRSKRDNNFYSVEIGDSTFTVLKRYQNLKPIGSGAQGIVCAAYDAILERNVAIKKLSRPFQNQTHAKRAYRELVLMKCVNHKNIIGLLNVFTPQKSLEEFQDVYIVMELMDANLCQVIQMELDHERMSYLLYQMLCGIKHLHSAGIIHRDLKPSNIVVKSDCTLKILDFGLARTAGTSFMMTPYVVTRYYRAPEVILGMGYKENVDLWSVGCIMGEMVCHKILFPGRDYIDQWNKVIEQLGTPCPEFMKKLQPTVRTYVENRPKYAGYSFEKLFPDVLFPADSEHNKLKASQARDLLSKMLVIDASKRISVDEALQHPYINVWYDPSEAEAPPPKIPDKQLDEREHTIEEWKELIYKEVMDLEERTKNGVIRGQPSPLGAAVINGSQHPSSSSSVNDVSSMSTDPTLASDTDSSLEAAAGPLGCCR

Take `Fc1ccccc1-c1nc(Nc2ccncc2)c2ccccc2n1` [Compound 5, 2-(2-fluorophenyl)-4-(4-pyridylamino)-quinazoline]: the IC50 (commonly the concentration at which inhibition is half-maximal) in data set [1] was above 100 µM; in [2], 120 µM; in data set [3], 928 nM; in data set [4], above 250 µM; in data set [5], 227 µM; in data set [6], 167 µM. Further, the IC50 was found to be 4.2 µM in data set [7] and 245 µM in data set [9]. Also, the solubility in data set [8] was at least 250 µM.
Take `c1ccc(-c2nc(Nc3ccncc3)c3ccccc3n2)cc1` [Compound 7, 2-phenyl-4-(4-pyridylamino)-quinazoline]: the half-maximal inhibitory concentration (IC50) in data set [1] was above 500 µM; in data set [2] it was 240 µM; in data set [3], 3650 nM; in data set [4], 310 µM; in data set [5] it was above 300 µM; in [6], above 300 µM. The figures for the IC50 in [7] and in data set [9] were 34 µM and above 500 µM, respectively. In data set [8], the solubility was at least 250 µM.

The values are drawn from US6903096B2, “Quinazoline derivatives as medicaments” (Scios, Inc., priority 1998, dated 2005).
